{
  "source": "patent US6924099B1",
  "about": "“Biomarkers and assays for carcinogenesis” (G.D. Searle & Co., priority 1999, dated 2005)",
  "key": {"rat liver mRNA [1]": {"tested_on": "rat liver mRNA", "experiment": "RT-PCR of mRNAs for three phenobarbital-induced genes", "details": "oral gavage 200 mg/kg, 88 days or 5 days", "method": "Specifically, rats were treated by oral gavage for 88 days in the 13 week experiment, or for 5 days with 200 mg/kg phenobarbital or control vehicle."}, "rat liver mRNA [2]": {"tested_on": "rat liver mRNA", "experiment": "Validation of AFLP biomarkers by rt-PCR (Taqman) in liver of phenobarbital-treated rats", "format": "in vivo", "details": "for Fold Change 2-week: 2 weeks phenobarbital; for Fold Change 13-week: 13 weeks phenobarbital 200 mg/kg oral gavage", "method": "After AFLP experiments were conducted, and results analyzed, the effects of phenobarbital on the expression of several biomarkers were validated. RNA was extracted from the same liver samples used in the AFLP study, in addition to liver samples from rats treated with phenobarbital for 2-weeks, followed by reverse transcription reactions to generate cDNA, followed by PCR, using Taqman technology. The genes analyzed for phenobarbital-induced alterations, and the corresponding AFLP sequence numbers are listed in Table 5, and a graph and a chart of the actual results are in Table 6 and FIG. 1.\nEleven of the 17 (65%) genes analyzed were also determined to be differentially expressed using rt-PCR. However, this is based on comparisons at the same timepoint (13 weeks). When the rt-PCR analyses performed on the 2 week samples are considered, another marker (S-033) is found to be differentially expressed. Theoretically, differences in sensitivity and or specificity between the two techniques could be accounted for these minor discrepancies. However, S-033 is an example of how AFLP has identified biomarkers which are optimal for carcinogen detection at timepoints other than 13 weeks."}, "[3]": {"tested_on": "cellular mRNAs in rat liver", "experiment": "AFLP-based Transcript Imaging of liver mRNAs of phenobarbital-treated rats", "format": "in vivo", "details": "for Fold Change AFLP: 13 weeks phenobarbital 200 mg/kg oral gavage", "method": "Rats were treated with phenobarbital for thirteen weeks or in a separate experiment, for 5 days. Liver mRNAs were extracted and probed for those mRNAs specifically altered by phenobarbital treatment by comparing with mRNA expression in untreated rats. The relative abundance of cellular mRNAs in rat liver was determined using PE GenScope's AFLP (Amplified Fragment Length Polymorphism)-based Transcript Imaging technology. The mRNA is converted into double-stranded cDNA, which is then cut with restriction enzymes. The resulting restriction fragments are tagged with specific adapters of known sequences, which allows for subsequent amplification of the fragments under highly stringent conditions. Similar technology has been used in plants (Money. T. et al., Nucleic Acids Res. 24:2616-2617 (1996), incorporated by reference in its entirety)."}, "[4]": {"details": "SEQ NO. 4 (Rat aldehyde dehydrogenase) mRNA"}, "[5]": {"details": "SEQ NO. 10 (Rat vitamin D-binding protein) mRNA"}, "[6]": {"details": "SEQ NO. 25 (Rat cytochrome B) mRNA"}, "[7]": {"details": "SEQ NO. 34 (Rat liver catalase) mRNA"}, "[8]": {"details": "SEQ NO. 38 (Rat alpha-2u globulin) mRNA"}, "[9]": {"details": "SEQ NO. 40 (Rat NADP-dep.isocitrate dehydrogenase) mRNA"}, "[10]": {"details": "SEQ NO. 42 (Mouse JAK1 (protein tyrosine kinase)) mRNA"}, "[11]": {"details": "SEQ NO. 46 (Rat cathepsin B) mRNA"}, "[12]": {"details": "SEQ NO. 52 ((s)-2-hydroxy acid oxidase) mRNA"}, "[13]": {"details": "SEQ NO. 92 (Rat nicotinic receptor alpha 7 subunit) mRNA"}, "[14]": {"details": "SEQ NO. 114 (Rat delta-aminolevulinate synthase) mRNA"}, "[15]": {"details": "SEQ NO. 116 (Estrogen sulfotransferase) mRNA"}, "[16]": {"details": "SEQ NO. 129 (Glutathione S-transferase) mRNA"}, "[17]": {"details": "SEQ NO. 230 (Rat carboxylesterase) mRNA"}},
  "data": [
    {"smiles": "CCC1(c2ccccc2)C(=O)NC(=O)NC1=O", "note": "[phenobarbital]", "values": [
      {"measurement": "Average expression level of P450 2B1 mRNA as compared to control rats", "setting": "rat liver mRNA [1]", "value": "substantial induction"},
      {"measurement": "Fold Change 2-week", "setting": "rat liver mRNA [2]; SEQ NO. 3 (Rat P-450) mRNA", "value": 1.34, "unit": "fold"},
      {"measurement": "Fold Change 13-week", "setting": "rat liver mRNA [2]; SEQ NO. 3 (Rat P-450) mRNA", "value": 1.85, "unit": "fold"},
      {"measurement": "Fold Change 2-week", "setting": "rat liver mRNA [2]; [4]", "value": 16.36, "unit": "fold"},
      {"measurement": "Fold Change 13-week", "setting": "rat liver mRNA [2]; [4]", "value": 12.88, "unit": "fold"},
      {"measurement": "Fold Change 2-week", "setting": "rat liver mRNA [2]; SEQ NO. 6 (Rat UDPGT1.1) mRNA", "value": 0.93, "unit": "fold"},
      {"measurement": "Fold Change 13-week", "setting": "rat liver mRNA [2]; SEQ NO. 6 (Rat UDPGT1.1) mRNA", "value": 1.5, "unit": "fold"},
      {"measurement": "Fold Change 2-week", "setting": "rat liver mRNA [2]; [5]", "value": 0.66, "unit": "fold"},
      {"measurement": "Fold Change 13-week", "setting": "rat liver mRNA [2]; [5]", "value": 0.79, "unit": "fold"},
      {"measurement": "Fold Change 2-week", "setting": "rat liver mRNA [2]; [6]", "value": 1.85, "unit": "fold"},
      {"measurement": "Fold Change 13-week", "setting": "rat liver mRNA [2]; [6]", "value": 0.75, "unit": "fold"},
      {"measurement": "Fold Change 2-week", "setting": "rat liver mRNA [2]; [7]", "value": 0.79, "unit": "fold"},
      {"measurement": "Fold Change 13-week", "setting": "rat liver mRNA [2]; [7]", "value": 0.45, "unit": "fold"},
      {"measurement": "Fold Change 2-week", "setting": "rat liver mRNA [2]; [8]", "value": 0.35, "unit": "fold"},
      {"measurement": "Fold Change 13-week", "setting": "rat liver mRNA [2]; [8]", "value": 0.03, "unit": "fold"},
      {"measurement": "Fold Change 2-week", "setting": "rat liver mRNA [2]; [9]", "value": 0.88, "unit": "fold"},
      {"measurement": "Fold Change 13-week", "setting": "rat liver mRNA [2]; [9]", "value": 1.14, "unit": "fold"},
      {"measurement": "Fold Change 2-week", "setting": "rat liver mRNA [2]; [10]", "value": 0.8, "unit": "fold"},
      {"measurement": "Fold Change 13-week", "setting": "rat liver mRNA [2]; [10]", "value": 0.83, "unit": "fold"},
      {"measurement": "Fold Change 2-week", "setting": "rat liver mRNA [2]; [11]", "value": 0.87, "unit": "fold"},
      {"measurement": "Fold Change 13-week", "setting": "rat liver mRNA [2]; [11]", "value": 1.41, "unit": "fold"},
      {"measurement": "Fold Change 2-week", "setting": "rat liver mRNA [2]; [12]", "value": 0.31, "unit": "fold"},
      {"measurement": "Fold Change 13-week", "setting": "rat liver mRNA [2]; [12]", "value": 0.09, "unit": "fold"},
      {"measurement": "Fold Change 2-week", "setting": "rat liver mRNA [2]; [13]", "value": 0.45, "unit": "fold"},
      {"measurement": "Fold Change 13-week", "setting": "rat liver mRNA [2]; [13]", "value": 0.72, "unit": "fold"},
      {"measurement": "Fold Change 2-week", "setting": "rat liver mRNA [2]; [14]", "value": 1.22, "unit": "fold"},
      {"measurement": "Fold Change 13-week", "setting": "rat liver mRNA [2]; [14]", "value": 4.03, "unit": "fold"},
      {"measurement": "Fold Change 2-week", "setting": "rat liver mRNA [2]; [15]", "value": 0.81, "unit": "fold"},
      {"measurement": "Fold Change 13-week", "setting": "rat liver mRNA [2]; [15]", "value": 0.15, "unit": "fold"},
      {"measurement": "Fold Change 2-week", "setting": "rat liver mRNA [2]; [16]", "value": 2.52, "unit": "fold"},
      {"measurement": "Fold Change 13-week", "setting": "rat liver mRNA [2]; [16]", "value": 4.03, "unit": "fold"},
      {"measurement": "Fold Change 2-week", "setting": "rat liver mRNA [2]; SEQ NO. 179 (Rat UDPGT) mRNA", "value": 14.11, "unit": "fold"},
      {"measurement": "Fold Change 13-week", "setting": "rat liver mRNA [2]; SEQ NO. 179 (Rat UDPGT) mRNA", "value": 9.05, "unit": "fold"},
      {"measurement": "Fold Change 2-week", "setting": "rat liver mRNA [2]; [17]", "value": 4.24, "unit": "fold"},
      {"measurement": "Fold Change 13-week", "setting": "rat liver mRNA [2]; [17]", "value": 5.74, "unit": "fold"},
      {"measurement": "Down-regulation of the sequences of Table 3 (SEQ NO 419-457)", "setting": "[3]; 5 weeks of treatment", "value": "at least 1.7 fold"},
      {"measurement": "Up-regulation of the sequences of Table 4 (SEQ NO 458-489)", "setting": "[3]; 5 weeks of treatment", "value": "at least 1.7 fold"},
      {"measurement": "Down-regulation of the sequences of Table 1 (SEQ NO 275-318)", "setting": "[3]; 13 weeks of treatment", "value": "at least 1.7 fold"},
      {"measurement": "Up-regulation of the sequences of Table 2 (SEQ NO 319-418)", "setting": "[3]; 13 weeks of treatment", "value": "at least 1.7 fold"},
      {"measurement": "Fold Change AFLP", "setting": "[3]; SEQ NO. 3 (Rat P-450) mRNA", "value": 2.3, "unit": "fold"},
      {"measurement": "Fold Change AFLP", "setting": "[3]; [4]", "value": 8.2, "unit": "fold"},
      {"measurement": "Fold Change AFLP", "setting": "[3]; SEQ NO. 6 (Rat UDPGT1.1) mRNA", "value": 4.6, "unit": "fold"},
      {"measurement": "Fold Change AFLP", "setting": "[3]; [5]", "value": 1.7, "unit": "fold"},
      {"measurement": "Fold Change AFLP", "setting": "[3]; [6]", "value": 4.2, "unit": "fold"},
      {"measurement": "Fold Change AFLP", "setting": "[3]; [7]", "value": 16, "unit": "fold"},
      {"measurement": "Fold Change AFLP", "setting": "[3]; [8]", "value": 0.04, "unit": "fold"},
      {"measurement": "Fold Change AFLP", "setting": "[3]; [9]", "value": 2.5, "unit": "fold"},
      {"measurement": "Fold Change AFLP", "setting": "[3]; [10]", "value": 1.9, "unit": "fold"},
      {"measurement": "Fold Change AFLP", "setting": "[3]; [11]", "value": 2.3, "unit": "fold"},
      {"measurement": "Fold Change AFLP", "setting": "[3]; [12]", "value": 0.3, "unit": "fold"},
      {"measurement": "Fold Change AFLP", "setting": "[3]; [13]", "value": 6.3, "unit": "fold"},
      {"measurement": "Fold Change AFLP", "setting": "[3]; [14]", "value": 3.8, "unit": "fold"},
      {"measurement": "Fold Change AFLP", "setting": "[3]; [15]", "value": 0.32, "unit": "fold"},
      {"measurement": "Fold Change AFLP", "setting": "[3]; [16]", "value": 4, "unit": "fold"},
      {"measurement": "Fold Change AFLP", "setting": "[3]; SEQ NO. 179 (Rat UDPGT) mRNA", "value": 10.5, "unit": "fold"},
      {"measurement": "Fold Change AFLP", "setting": "[3]; [17]", "value": 1.3, "unit": "fold"}
    ]}
  ]
}
